According to patent publication US6492124B1, “Trance activated signal transduction pathways in osteoclasts” (The Rockefeller University, priority 1999, dated 2002):

Legend:
[1] = test system: PKB; assay: PKB activation in dendritic cells (phospho-PKB Western blot); type: cell-based, mouse
Method: FIG. 1. TRANCE activates p44/42 ERK, NF-κB and PKB in osteoclasts and dendritic cells. (A) Mature bone marrow-derived osteoclasts were stimulated for the indicated times with recombinant hCD8-TRANCE (TRANCE; 1 μg/ml). Levels of phosphorylated forms of p44/p42 ERK (p44 ERK^P and p42 ERK^P), IκBα (IκB-α^P) and PKB (PKB^P) in whole cell extracts were determined using phospho-peptide-specific antibodies as indicated in the figure. The membranes were stripped and incubated with antibodies against the p44/p42 ERK, IκB-α, and PKB as indicated to confirm that similar amounts of whole cell extracts were analyzed. Note the decrease of IκB-α after 10 min of treatment due to its degradation. (B) as in (A) except the use of mature bone marrow-derived dendritic cells instead of osteoclasts.
FIG. 2. TRANCE-induced PKB activation in osteoclasts and dendritic cells is blocked by inhibitors of PI3-kinase, tyrosine kinases and Src family kinases. (A) Osteoclasts were serum starved and then pretreated for 90 min with LY294002 (10 μM), Herbimycin A (Herb. A; 10 μM), and PP1 (10 μM) inhibitors which are specific for PI3-kinase, PTKs, and Src-family kinases, respectively, were stimulated for indicated times with TRANCE (1 μg/ml). Levels of phosphorylated p44/p42 ERK, PKB, and IκB-α were determined as described in FIG. 1. Cells pretreated with vehicle (DMSO) were used as a negative control. (B) as in (A) except the use of mature bone marrow-derived dendritic cells.
FIG. 6. Cytokine receptors that engage TRAF6 activate PKB through Src-family kinases. (A) Dendritic cells were treated with TNF (10 ng/ml), TRANCE (5 μg/ml), LPS (50 μg/ml), or IL-1α (20 ng/ml) for the indicated times (min). The activation of PKB was determined in whole cell extracts using a phospho-PKB-specific antibody as described in FIG. 1. (B) Dendritic cells were pretreated with vehicle (DMSO) or the Src-family kinase inhibitor, PP1 (10 μM) for 90 minutes followed by a 15 minute treatment with TRANCE (5 μg/ml), LPS (50 μg/ml), or IL-1α (20 ng/ml) or no treatment at all (−). The activation of PKB was determined as described in FIG. 1.
Primary cells and cell lines. Osteoclasts and macrophages were generated from bone marrow precursors as described (Wani, et al., Endocrinology, 140:[…], 1999). In brief, bone marrow cells from tibiae and femur of 4-6 week old mice (C57BL/6, Jackson Laboratories) were cultured overnight in media (α-MEM, 10% FCS) in the presence of CSF-1 (5 ng/ml). After 24 hours, non-adherent cells were harvested, washed, and further cultured in media with CSF-1 (50 ng/ml) plus TRANCE (10 ng/ml) to develop osteoclasts, or with CSF-1 alone to develop macrophages. Using these conditions, after 4 days of culture, greater than 95 percent of the adherent cells were osteoclasts or macrophages. For experiments described in this study, only adherent cells were used after extensive washing. Mature dendritic cells were generated from bone marrow precursors of 4-6 week old female C57BL/6 mice (C57BL/6, Jackson Laboratories) cultured in media (RPMI1640, 5% FBS) and GM-CSF (1:30 cultured supernatant from the J558 cell line, a gift from Dr. R. M. Steinman, The Rockefeller University) for 8 days as previously described (Inaba, et al., J. Exp. Med., 176:1693-1702, 1992). To generate osteoclasts and dendritic cells from c-Src deficient mice, spleen cells, which contain hematopoietic precursors due to extramedullary hematopoeisis, were substituted for bone marrow cells as previously described (Schwartzberg, et al., Genes Dev., 11:2835-2844, 1997). Mature spleen-derived dendritic cells were isolated from spleens treated with collagenase (40 U/ml; Boehinger Mannheim) and subjected to a Nycodenz centrifugation gradient (14.5%; Nycomed) to obtain low density cells. After allowing them adhere for 2 hours to a tissue culture dish, contaminating floater cells were washed away and mature dendritic cells were obtained by overnight culture.
Cell stimulation, cell transfection and in vitro assays. […]

[2] = test system: mature osteoclasts; assay: Osteoclast survival assay (TRAP solution assay); type: cell-based, mouse; conditions: 24 hours; TRANCE 5 μg/ml or CSF-1 10 ng/ml
Method: TRAP solution assays were performed and percent survival calculated. The experiment was performed in triplicate and the mean values with positive standard deviations are shown. […] (E) Mature osteoclasts were washed extensively and then cultured for an additional 24 hr in media without (−) or with TRANCE (5 μg/ml; +) in the absence or presence of increasing doses (200 nM and 800 nM) of LY294002. TRAP solution assays were performed and percent survival was as described in Experimental Procedures. The experiment was performed in triplicate and the mean values with positive standard deviations are shown.
Osteoclast survival assays. In vitro differentiated mature osteoclasts were washed 3 times in media then further cultured for 24 hr in media alone (control) or in media with TRANCE (5 μg/ml) or CSF-1 (10 ng/ml) in the presence or absence of LY294002 as indicated.
Specific cell survival (%)=(A405, 24 hr−A405. background)*100/(A405, 0 hr−A405, background)

For “TNF-related activation-induced cytokine [TRANCE]”, the “PKB activation in dendritic cells stimulated with cytokine” value ([1]; TNF 10 ng/ml, TRANCE 5 μg/ml, LPS 50 μg/ml, IL-1α 20 ng/ml, CD40L data not shown) was “activated”, the “PKB activation in dendritic cells from c-Src−/− mice” value ([1]; TRANCE-treated, compared with wild-type) was “not significantly reduced” and the “time for which PKB activity was sustained” value ([1]; dendritic cells, TRANCE stimulation) was “greater than 3 hours”. For the same substance, the “phosphorylated form of PKB upon TRANCE stimulation” value ([1]; dendritic cells, after 5 minutes, TRANCE 1 μg/ml) was “increase” and the “cytokine-promoted survival in c-Src−/− osteoclasts compared to wild-type” value [2] was “reduced”.
